Reference: PubChem BioAssay AID1259407 (Chemical Carcinogenesis Research Information System (CCRIS), 2018)
The source made the active and inactive calls. No rule for the calls is given here.

System: CCRIS mutagenicity, Ames/micronucleus/aberration tests
Assay: CCRIS mutagenicity studies

Compound: COc1ccc(N)cc1
- mutagenic call (Test System: AMES SALMONELLA TYPHIMURIUM, Strain/Indicator: TA1535, Metabolic Activation: RAT, LIVER, S-9, Method: STANDARD PLATE): inactive; negative
- mutagenic call (Test System: AMES SALMONELLA TYPHIMURIUM, Strain/Indicator: TA1537, Metabolic Activation: HAMSTER, LIVER, S-9, AROCLOR 1254, Method: STANDARD PLATE): inactive; negative
- mutagenic call (Test System: AMES SALMONELLA TYPHIMURIUM, Strain/Indicator: TA1537, Metabolic Activation: HAMSTER, LIVER, S-9, Method: STANDARD PLATE): inactive; negative
- mutagenic call (Test System: AMES SALMONELLA TYPHIMURIUM, Strain/Indicator: TA1537, Metabolic Activation: MOUSE, LIVER, S-9, AROCLOR 1254, Method: STANDARD PLATE): inactive; negative
- mutagenic call (Test System: AMES SALMONELLA TYPHIMURIUM, Strain/Indicator: TA1537, Metabolic Activation: NONE, Method: PREINCUBATION): inactive; negative
- mutagenic call (Test System: AMES SALMONELLA TYPHIMURIUM, Strain/Indicator: TA1537, Metabolic Activation: NONE, Method: STANDARD PLATE): inactive; negative
- mutagenic call (Test System: AMES SALMONELLA TYPHIMURIUM, Strain/Indicator: TA1537, Metabolic Activation: RAT LIVER S-9, PHENOBARBITAL AND BETA-NAPHTHOFLAVONE, Method: PREINCUBATION): inactive; negative
- mutagenic call (Test System: AMES SALMONELLA TYPHIMURIUM, Strain/Indicator: TA1537, Metabolic Activation: RAT, LIVER, S-9, AROCLOR 1254, Method: STANDARD PLATE): inactive; negative
- mutagenic call (Test System: AMES SALMONELLA TYPHIMURIUM, Strain/Indicator: TA1537, Metabolic Activation: RAT, LIVER, S-9, Method: STANDARD PLATE): inactive; negative
- mutagenic call (Test System: AMES SALMONELLA TYPHIMURIUM, Strain/Indicator: TA1538, Metabolic Activation: HAMSTER, LIVER, S-9, AROCLOR 1254, Method: STANDARD PLATE): inactive; negative
- mutagenic call (Test System: AMES SALMONELLA TYPHIMURIUM, Strain/Indicator: TA1538, Metabolic Activation: HAMSTER, LIVER, S-9, Method: STANDARD PLATE): inactive; negative
- mutagenic call (Test System: AMES SALMONELLA TYPHIMURIUM, Strain/Indicator: TA1538, Metabolic Activation: MOUSE, LIVER, S-9, AROCLOR 1254, Method: STANDARD PLATE): inactive; negative
- mutagenic call (Test System: AMES SALMONELLA TYPHIMURIUM, Strain/Indicator: TA1538, Metabolic Activation: MOUSE, LIVER, S-9, Method: STANDARD PLATE): inactive; negative
- mutagenic call (Test System: AMES SALMONELLA TYPHIMURIUM, Strain/Indicator: TA1538, Metabolic Activation: NONE, Method: STANDARD PLATE): inactive; negative
- mutagenic call (Test System: AMES SALMONELLA TYPHIMURIUM, Strain/Indicator: TA1538, Metabolic Activation: RAT, LIVER, S-9, AROCLOR 1254, Method: STANDARD PLATE): inactive; negative
- mutagenic call (Test System: AMES SALMONELLA TYPHIMURIUM, Strain/Indicator: TA1538, Metabolic Activation: RAT, LIVER, S-9, Method: STANDARD PLATE): inactive; negative
- mutagenic call (Test System: AMES SALMONELLA TYPHIMURIUM, Strain/Indicator: TA2638, Metabolic Activation: NONE, Method: STANDARD PLATE): inactive; negative
- mutagenic call (Test System: AMES SALMONELLA TYPHIMURIUM, Strain/Indicator: YG1029, Metabolic Activation: HAMSTER, LIVER, S-9, Method: PREINCUBATION): active; positive
- mutagenic call (Test System: AMES SALMONELLA TYPHIMURIUM, Strain/Indicator: YG1029, Metabolic Activation: NONE, Method: PREINCUBATION): active; positive
- mutagenic call (Test System: AMES SALMONELLA TYPHIMURIUM, Strain/Indicator: YG1029, Metabolic Activation: RAT, SEMINAL VESICLE, MICROSOMES, Method: PREINCUBATION): active; positive
- mutagenic call (Test System: E. COLI, Strain/Indicator: WP2 (PKM101), Metabolic Activation: NONE, Method: STANDARD PLATE): inactive; negative
- mutagenic call (Test System: E. COLI, Strain/Indicator: WP2 UVRA (PKM101), Metabolic Activation: NONE, Method: STANDARD PLATE): active; positive
- mutagenic call (Test System: E. COLI, Strain/Indicator: WP2 UVRA, Metabolic Activation: HAMSTER, LIVER, S-9, AROCLOR 1254, Method: STANDARD PLATE): inactive; negative
- mutagenic call (Test System: E. COLI, Strain/Indicator: WP2 UVRA, Metabolic Activation: HAMSTER, LIVER, S-9, Method: STANDARD PLATE): inactive; negative
- mutagenic call (Test System: E. COLI, Strain/Indicator: WP2 UVRA, Metabolic Activation: MOUSE, LIVER, S-9, AROCLOR 1254, Method: STANDARD PLATE): inactive; negative
- mutagenic call (Test System: E. COLI, Strain/Indicator: WP2 UVRA, Metabolic Activation: MOUSE, LIVER, S-9, Method: STANDARD PLATE): inactive; negative
- mutagenic call (Test System: E. COLI, Strain/Indicator: WP2 UVRA, Metabolic Activation: NONE, Method: STANDARD PLATE): inactive; negative
- mutagenic call (Test System: E. COLI, Strain/Indicator: WP2 UVRA, Metabolic Activation: RAT, LIVER, S-9, AROCLOR 1254, Method: STANDARD PLATE): inactive; negative
- mutagenic call (Test System: E. COLI, Strain/Indicator: WP2 UVRA, Metabolic Activation: RAT, LIVER, S-9, Method: STANDARD PLATE): inactive; negative
- mutagenic call (Test System: E.COLI, Strain/Indicator: WP2UVRA/PKM101, Metabolic Activation: RAT LIVER S-9, PHENOBARBITAL AND BETA-NAPHTHOFLAVONE, Method: PREINCUBATION): inactive; negative
- mutagenic call (Test System: E.COLI, Strain/Indicator: WP2UVRA, Metabolic Activation: NONE, Method: PREINCUBATION): inactive; negative
- mutagenic call (Test System: MOUSE LYMPHOMA, Strain/Indicator: L5178Y (TK+/TK-), Metabolic Activation: NONE, Method: SUSPENSION/PLATE): active; positive
- mutagenic call (Test System: MOUSE LYMPHOMA, Strain/Indicator: L5178Y (TK+/TK-), Metabolic Activation: RAT, LIVER, S-9, AROCLOR 1254, Method: SUSPENSION/PLATE): active; positive
